From patent publication US9630922B2, “3-spiro-7-hydroxamic acid tetralins as HDAC inhibitors” (Forma Therapeutics, Inc., priority 2015, dated 2017)

target: T1, HDAC6 (Homo sapiens, UniProt Q9UBN7); assay: In vitro Histone Deacetylase Assay (enzymatic HDAC6 electrophoretic mobility shift assay); format: biochemical; conditions: full length human recombinant HDAC6, 1 nM enzyme, 2 μM peptide substrate RHKK(Ac)-NH2, 25° C.; read-out: HDAC6 activity range
T1 construct: Full length human recombinant HDAC6 protein was expressed in baculoviral system; made in house; host or cells: baculoviral system
T1 sequence (Q9UBN7 1-1215): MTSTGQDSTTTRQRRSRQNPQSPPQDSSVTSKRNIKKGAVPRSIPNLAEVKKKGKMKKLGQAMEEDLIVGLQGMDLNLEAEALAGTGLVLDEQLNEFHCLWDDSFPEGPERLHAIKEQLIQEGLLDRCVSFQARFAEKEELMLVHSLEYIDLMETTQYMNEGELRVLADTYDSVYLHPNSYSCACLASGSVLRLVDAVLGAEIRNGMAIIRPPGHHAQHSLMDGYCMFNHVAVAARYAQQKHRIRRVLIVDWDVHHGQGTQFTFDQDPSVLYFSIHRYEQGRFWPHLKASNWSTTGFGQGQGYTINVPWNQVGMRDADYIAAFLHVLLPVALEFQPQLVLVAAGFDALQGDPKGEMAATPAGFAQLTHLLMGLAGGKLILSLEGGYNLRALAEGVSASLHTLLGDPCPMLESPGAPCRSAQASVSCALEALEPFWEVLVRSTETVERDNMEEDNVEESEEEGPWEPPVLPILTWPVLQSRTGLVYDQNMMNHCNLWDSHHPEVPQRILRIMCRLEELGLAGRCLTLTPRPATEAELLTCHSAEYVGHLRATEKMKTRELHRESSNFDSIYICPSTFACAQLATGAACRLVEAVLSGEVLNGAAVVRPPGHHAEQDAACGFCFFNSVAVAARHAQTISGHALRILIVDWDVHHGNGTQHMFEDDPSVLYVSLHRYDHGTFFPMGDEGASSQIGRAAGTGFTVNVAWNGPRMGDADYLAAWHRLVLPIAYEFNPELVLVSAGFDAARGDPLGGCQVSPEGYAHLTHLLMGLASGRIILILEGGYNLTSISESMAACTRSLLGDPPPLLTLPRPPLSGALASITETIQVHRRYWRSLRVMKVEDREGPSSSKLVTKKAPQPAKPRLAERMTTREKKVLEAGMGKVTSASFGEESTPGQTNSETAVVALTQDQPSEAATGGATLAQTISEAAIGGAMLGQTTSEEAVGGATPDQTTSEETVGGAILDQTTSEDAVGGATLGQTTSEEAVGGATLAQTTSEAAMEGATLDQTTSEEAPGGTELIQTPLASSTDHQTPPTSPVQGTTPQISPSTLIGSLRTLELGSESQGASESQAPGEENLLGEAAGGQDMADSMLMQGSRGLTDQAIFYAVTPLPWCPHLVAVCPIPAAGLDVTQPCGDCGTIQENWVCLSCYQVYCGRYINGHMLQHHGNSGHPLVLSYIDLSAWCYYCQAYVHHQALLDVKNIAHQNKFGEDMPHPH
How it was run: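 Full-length recombinant human HDAC6 (baculovirus-expressed, 1 nM) was incubated at 25 °C with 2 μM fluorescent RHKK(Ac)-NH2 peptide in HEPES pH 7.5, KCl, BSA, Triton X-100 and 1% DMSO, then SDS-quenched. Substrate and product were separated by microfluidic mobility shift, and IC50 came from 4-parameter fits of 12-point, 3-fold dilution curves.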

Q: `O=C(NO)c1ccc2c(c1)CC[C@]1(CCCN(c3ccccc3)C1=O)C2` (single isomer, unassigned) [Compound I-182] was tested. Which IC50 did it give?
A: The IC50 was no more than 100 nM.

Q: For `O=C(NO)c1ccc2c(c1)CC[C@]1(CCN(Cc3cccc(Cl)c3)C1=O)C2` [Compound I-54, (R)-1′-(3-chlorobenzyl)-N-hydroxy-2′-oxo-3,4-dihydro-1H-spiro[napthalene-2,3′-pyrrolidine]-6-carboxamide], which IC50 is on record?
A: The IC50 was no more than 100 nM.

Q: For `O=C(NO)c1ccc2c(c1)CC[C@]1(CCN(c3cccc(F)c3)C1=O)C2` [Compound I-113, (R)-1′-(3-fluorophenyl)-N-hydroxy-2′-oxo-3,4-dihydro-1H-spiro[naphthalene-2,3′-pyrrolidine]-6-carboxamide], which IC50 is on record?
A: The IC50 was no more than 100 nM.

Q: How did the IC50 turn out when `O=C(NO)c1ccc2c(c1)CC[C@]1(CCN(c3cccnc3)C1=O)C2` [Compound I-10, (R)-N-hydroxy-2′-oxo-1′-(pyridin-3-yl)-3,4-dihydro-1H-spiro[naphthalene-2,3′-pyrrolidine]-6-carboxamide] was run?
A: The IC50 was no more than 100 nM.

Q: For `O=C(NO)c1ccc2c(c1)CC[C@]1(CCN(Cc3ccc4nonc4c3)C1=O)C2` [Compound I-42, (R)-1′-(benzo[c][1,2,5]oxadiazol-5-ylmethyl)-N-hydroxy-2′-oxo-3,4-dihydro-1H-spiro[naphthalene-2,3′-pyrrolidine]-6-carboxamide], which IC50 is on record?
A: The IC50 was no more than 100 nM.

Q: Which IC50 does the source give for `CC(C)c1ccc(N2CC[C@]3(CCc4cc(C(=O)NO)ccc4C3)C2=O)cn1` [Compound I-94, (R)-N-hydroxy-1′-(6-isopropylpyridin-3-yl)-2′-oxo-3,4-dihydro-1H-spiro[naphthalene-2,3′-pyrrolidine]-6-carboxamide] here?
A: The IC50 was no more than 100 nM.

Q: With `O=C(NO)c1ccc2c(c1)CC[C@@]1(CCN(Cc3ccccc3OC(F)F)C1=O)C2` [Compound I-87, (S)-1′-(2-(difluoromethoxy)benzyl)-N-hydroxy-2′-oxo-3,4-dihydro-1H-spiro[naphthalene-2,3′-pyrrolidine]-6-carboxamide] as the compound, how does the IC50 read?
A: The IC50 was no more than 100 nM.

Q: `Cc1ccccc1CN1CC[C@@]2(CCc3cc(C(=O)NO)ccc3C2)C1=O` [Compound I-66, (S)-N-hydroxy-1′-(2-methylbenzyl)-2′-oxo-3,4-dihydro-1H-spiro[naphthalene-2,3′-pyrrolidine]-6-carboxamide] was tested. Which IC50 did it give?
A: The IC50 was no more than 100 nM.

Q: With `CN1CC[C@@]2(CCc3cc(C(=O)NO)ccc3C2)C1=O` [Compound I-105, (S)-N-hydroxy-1′-methyl-2′-oxo-3,4-dihydro-1H-spiro[naphthalene-2,3′-pyrrolidine]-6-carboxamide] as the compound, how does the IC50 read?
A: Its IC50 is no more than 100 nM.

Q: Which IC50 does the source give for `COCCCN1CCCC2(CCc3cc(C(=O)NO)ccc3C2)C1=O` (single isomer, unassigned) [Compound I-187] here?
A: Its IC50 is no more than 100 nM.

Q: `CC(C)N1CCC2(CCc3cc(C(=O)NO)ccc3O2)C1=O` (centres unmarked) [Compound I-235, N-hydroxy-1′-isopropyl-2′-oxospiro[chromane-2,3′-pyrrolidine]-6-carboxamide] was tested. Which IC50 did it give?
A: The IC50 was greater than 500 nM.

Q: Which IC50 does the source give for `O=C(NO)c1ccc2c(c1)CCC1(CCN(c3nc4ccccc4[nH]3)C1=O)C2` (centres unmarked) [Compound I-5, 1′-(1H-benzo[d]imidazol-2-yl)-N-hydroxy-2′-oxo-3,4-dihydro-1H-spiro[naphthalene-2,3′-pyrrolidine]-6-carboxamide] here?
A: Its IC50 is no more than 100 nM.

Q: With `COCCCN1CC2(CCc3cc(C(=O)NO)ccc3C2)CC1=O` (single isomer, unassigned) [Compound I-222] as the compound, how does the IC50 read?
A: Its IC50 is no more than 100 nM.

Q: `O=C(NO)c1ccc2c(c1)CCC1(CCN(c3cccnc3)C1=O)S2(=O)=O` (centres unmarked) [Compound I-240, N-hydroxy-2-oxo-1-(pyridin-3-yl)spiro[pyrrolidine-3,2′-thiochromane]-6′-carboxamide 1′,1′-dioxide] was tested. Which IC50 did it give?
A: Its IC50 is 100 to 500 nM.

Q: `N#Cc1ccccc1N1CC[C@]2(CCc3cc(C(=O)NO)ccc3C2)C1=O` [Compound I-175, (R)-1′-(2-cyanophenyl)-N-hydroxy-2′-oxo-3,4-dihydro-1H-spiro[naphthalene-2,3′-pyrrolidine]-6-carboxamide] was tested. Which IC50 did it give?
A: Its IC50 is no more than 100 nM.

Q: Which IC50 does the source give for `COc1ccc(N2CC[C@]3(CCc4cc(C(=O)NO)ccc4C3)C2=O)cc1F` [Compound I-90, (R)-1′-(3-fluoro-4-methoxyphenyl)-N-hydroxy-2′-oxo-3,4-dihydro-1H-spiro[naphthalene-2,3′-pyrrolidine]-6-carboxamide] here?
A: The IC50 was no more than 100 nM.

Q: How did the IC50 turn out when `O=C(NO)c1ccc2c(c1)CCC1(CCNC1=O)O2` (centres unmarked) [Compound I-236, N-hydroxy-2′-oxospiro[chromane-2,3′-pyrrolidine]-6-carboxamide] was run?
A: Its IC50 is 100 to 500 nM.

Q: With `O=C(NO)c1ccc2c(c1)CCC1(CC(=O)N(CC(F)(F)F)C1)C2` (single isomer, unassigned) [Compound I-220] as the compound, how does the IC50 read?
A: The IC50 was no more than 100 nM.

Q: Which IC50 does the source give for `O=C(NO)c1ccc2c(c1)CC[C@]1(CCN(Cc3cccnc3)C1=O)C2` [Compound I-18, (R)-N-hydroxy-2′-oxo-1′-(pyridin-3-ylmethyl)-3,4-dihydro-1H-spiro[naphthalene-2,3′-pyrrolidine]-6-carboxamide] here?
A: The IC50 was no more than 100 nM.

Q: `O=C(NO)c1ccc2c(c1)CC[C@]1(CCCN(C3CC3)C1=O)C2` [Compound I-183, (S)-1′-cyclopropyl-N-hydroxy-2′-oxo-3,4-dihydro-1H-spiro[naphthalene-2,3′-piperidine]-6-carboxamide] was tested. Which IC50 did it give?
A: Its IC50 is no more than 100 nM.

Q: Which IC50 does the source give for `CC(C)N1CCCC2(CCc3cc(C(=O)NO)ccc3C2)C1=O` (single isomer, unassigned) [Compound I-191] here?
A: Its IC50 is no more than 100 nM.

Q: How did the IC50 turn out when `CN(C)c1ccc(N2CC[C@@]3(CCc4cc(C(=O)NO)ccc4C3)C2=O)cn1` [Compound I-152, (2S)-1′-[6-(dimethylamino)pyridin-3-yl]-N-hydroxy-2′-oxo-3,4-dihydro-1H-spiro[naphthalene-2,3′-pyrrolidine]-6-carboxamide] was run?
A: Its IC50 is 100 to 500 nM.

Q: How did the IC50 turn out when `O=C(NO)c1ccc2c(c1)CC[C@@]1(CCN(C/C=C/c3ccccc3)C1=O)C2` [Compound I-65, (S)-1′-cinnamyl-N-hydroxy-2′-oxo-3,4-dihydro-1H-spiro[naphthalene-2,3′-pyrrolidine]-6-carboxamide] was run?
A: The IC50 was no more than 100 nM.

Q: `CN1CCC2(CCc3cc(C(=O)NO)ccc3O2)C1=O` (centres unmarked) [Compound I-237, N-hydroxy-1′-methyl-2′-oxospiro[chromane-2,3′-pyrrolidine]-6-carboxamide] was tested. Which IC50 did it give?
A: Its IC50 is 100 to 500 nM.

Q: `O=C(NO)c1ccc2c(c1)CCC1(CCN(C(=O)C3CCCCC3)CC1)O2` [II-3, 1′-(cyclohexanecarbonyl)-N-hydroxyspiro[chromane-2,4′-piperidine]-6-carboxamide] was tested. Which IC50 did it give?
A: Its IC50 is greater than 500 nM.

Q: `COc1cc(N2CC[C@]3(CCc4cc(C(=O)NO)ccc4C3)C2=O)ccc1F` [Compound I-128, (2R)--(4-fluoro-3-methoxyphenyl)-N-hydroxy-2′-oxo-3,4-dihydro-1H-spiro[naphthalene-2,3′-pyrrolidine]-6-carboxamide] was tested. Which IC50 did it give?
A: Its IC50 is no more than 100 nM.

Q: How did the IC50 turn out when `COc1ccccc1CN1CC[C@]2(CCc3cc(C(=O)NO)ccc3C2)C1=O` [Compound I-44, (R)-N-hydroxy-1′-(2-methoxybenzyl)-2′-oxo-3,4-dihydro-1H-spiro[naphthalene-2,3′-pyrrolidine]-6-carboxamide] was run?
A: Its IC50 is no more than 100 nM.

Q: Which IC50 does the source give for `CN1CCC[C@@]2(CCc3cc(C(=O)NO)ccc3C2)C1=O` (single isomer, unassigned) [Compound I-179] here?
A: The IC50 was no more than 100 nM.

Q: For `O=C(NO)c1ccc2c(c1)CC[C@@]1(CCN(c3cncc(F)c3)C1=O)C2` [Compound I-153, (2S)-1′-(5-fluoropyridin-3-yl)-N-hydroxy-2′-oxo-3,4-dihydro-1H-spiro[naphthalene-2,3′-pyrrolidine]-6-carboxamide], which IC50 is on record?
A: The IC50 was no more than 100 nM.
